From PMC9953224, “Pharmacokinetic Evaluation of New Drugs Using a Multi-Labelling Approach and PET Imaging: Application to a Drug Candidate with Potential Application in Neuromuscular Disorders” (Biomedicines, 2023)

Tests used:
[1] = Pharmacokinetics from metabolite-corrected arterial plasma TACs after intravenous administration; assay type: in vivo, Sprague Dawley Rats
Description: (§1) Anaesthesia was induced with 5% isoflurane (IsoFlo®, Abbott Laboratories, Abbott Park, IL, USA) and maintained by 2% of isoflurane in 100% O2. During the experiment, rats were kept normothermic using a heating blanket (Homeothermic Blanket Control Unit; Bruker). The rat was positioned in supine position on an operating table and the two distal hind limbs were fixed forming an approximately 30° angle with the horizontal plane. The surgical region was scrubbed using Betadine, starting in the centre, and making a circular sweep outward. A skin incision was made in the femoral region. Soft tissue was dissected to expose the femoral neurovascular bundle, consisting of femoral vein, artery, and nerve. Fine tip forceps were placed between the artery, vein and nerve and were slowly opened to separate the vessels, exposing an approximately 1 cm length section of artery/vein. The vena profunda femoris was sutured to avoid retrograde bleeding via this vessel, and the sapheno-femoral junction was cauterized. A few millimetres from venatomy, a vascular clip was inserted in the direction of the catheter (to control the flow) and a suture was applied in the opposite direction (to avoid retrograde bleeding). The same operation was carried out both on the femoral vein and femoral artery. An appropriate syringe filled with 50 U/mL Heparin/physiologic saline solution was fixed at the terminus of the catheters and these were filled with heparinized saline solution. On the upper half of the vessel circumference, at a 45° angle, an incision was made and the catheter (fine bore polythene tubing: ID 0.58 mm, OD 0.98 mm) was inserted through the venotomy and advanced to the vascular clip. The vascular clip was then removed, and the catheter advanced distally towards the level of the inguinal ligament. The catheter was finally secured to the femoral vein/artery proximally and distally with 2 single knots using 4–0 braided silk suture. The catheters were connected to an in-house developed system composed by a peristaltic pump and gamma-radiation coincidence detector (Bioscan, B-FC-4100). The femoral artery catheter, the gamma detector, the peristaltic pump, and the femoral vein catheter were thus connected in series, to enable the extracorporeal circulation of blood (flow 150 μL/s from femoral artery to femoral vein) and continuous measurement of radioactivity in the blood (Figure 1).
(§2) The labelled compounds were administrated two different ways: (i) intravenous bolus infusion (ca. 37 MBq in 300 μL of saline solution was injected through the femoral vein catheter) and (ii) oral bolus administration. For oral administration, animals were fasted for 5 h. The radioactive dose (ca. 74 MBq in 300 μL of saline solution) was administered using flexible 20-gauge disposable flexible PTFE feeding needles (Fine Science Tools, F.S.T.) and a small animal Laryngoscope (Penn-Century, Model LS-2) for the correct visualization of the oesophagus. The study was conducted under no carrier added (NCA, dose adjusted to 1 μg/Kg) and carrier added (CA, dose adjusted to 5 mg/Kg) conditions. In all cases, data were imported in real time to an excel sheet using PLX-DAX add-on for Microsoft Excel (measured in volts per second).
(§3) Arterial blood samples (1 per animal) were withdrawn (see Figure 1) from the femoral artery catheter and introduced into a capillary (Microhaematocrit capillaries 75 × 1.55, Nahita). Samples were centrifuged at 11,000× g […] for 10 min and the haematocrit was determined. A second blood sample was withdrawn and the amount of radioactivity of a fixed volume (10 µL) was measured in an automatic gamma counter (2470 Wizard, PerkinElmer) to determine Cb (concentration of radioactivity in blood) and convert data imported with PLX-DAX (Volts per seconds) into Bq/s using a previously determined calibration curve. Values were then expressed as percentage of injected dose per gram of blood (% ID/g). […]

[2] = Pharmacokinetics from metabolite-corrected arterial plasma TACs after oral administration; assay type: in vivo, Sprague Dawley Rats
Description: as §1, §2, §3

[3] = PET biodistribution after intravenous administration; assay type: in vivo, rats; details: 1 µg/Kg
Description: Rats were anesthetized by inhalation of 5% isoflurane (IsoFlo®, Abbott Laboratories, Abbott Park, IL, USA) in pure O2 and maintained by 1.5–2% isoflurane in 100% O2. During imaging, rats were kept normothermic using a heating blanket (Homeothermic Blanket Control Unit; Bruker). For intravenous administration, once the animal was under anaesthesia, one of the lateral tail veins was catheterized with a 24-gauge catheter (Introcan Certo®, Bbraun) and [^11C]AHK2.1 or [^11C]AHK2.2 was injected using saline solution as the vehicle (n = 3 for each radiolabelled compound, 26 ± 5 MBq; dose adjusted to 1 µg/Kg) concomitantly with the start of a PET dynamic acquisition. Whole body dynamic images were acquired in 4 bed positions (21 frames: 5 × 5 s per bed, 5 × 30 s per bed, 5 × 60 s per bed, 6 × 120 s per bed; total acquisition time = 79.6 min) in the 400–700 keV energetic window using an eXploreVista-CT small animal PET-CT system (GE Healthcare, Waukesha, WI, USA). After each PET scan, CT acquisitions were also performed (140 µA intensity, 40 kV voltage) to provide anatomical information of each animal as well as the attenuation map for the later reconstruction of the PET images. […] After reconstruction, PET-CT images of the same animal were co-registered and analysed using PMOD image processing tool (PMOD Technologies Ltd., Zürich, Switzerland). […]

FKBP12 = target: T1, FKBP12 (Homo sapiens, UniProt P62942); experiment: Competitive ligand binding assay (FKBP/FRB NanoBiT luminescence protein complementation) in HEK293 cells; assay type: cell-based; details: rapamycin 30 nM
T1 construct: host or cells: HEK293
Description: Briefly, HEK293 (ATCC) cells were transfected with FKBP/FRB NanoBiT Control Pair (Promega, Madison, WI, USA) and kinetic measurements were performed 24 h after transfection with Nano-Glo Live Cell Reagent (Promega), as described by the manufacturer. A total of 30 nM rapamycin (Sigma-Aldrich, Madrid, Spain) and AHK2 (1 μM–10 mM) was sequentially added and each effect was recorded for 10 min. Specific activity was normalized to vehicle, and IC50 was calculated using GraphPad Prism by fitting the data to a four-parameter logistic curve.

T1 sequence (P62942 whole entry): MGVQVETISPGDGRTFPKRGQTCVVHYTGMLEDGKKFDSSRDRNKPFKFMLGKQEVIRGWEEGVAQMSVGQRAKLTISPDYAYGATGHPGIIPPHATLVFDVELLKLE

Row | Structure (SMILES) | Cp/Cb ratio (radioactivity in plasma / blood) ([1]; arterial blood, rat) | percentage of radioactivity in plasma ([1]; from Cp/Cb and haematocrit 0.44 ± 0.04) | Hill function parameter d (initial level of parent fraction) ([1]; intravenous) | Hill function parameter a (plateau of parent fraction in plasma) ([1]; intravenous, 1 µg/Kg) | Hill function parameter a (plateau of parent fraction in plasma) ([1]; intravenous, 5 mg/Kg) | Hill function parameter d (initial level of parent fraction) [2] | Hill function parameter a (plateau of parent fraction in plasma) ([2]; 1 µg/Kg) | Hill function parameter a (plateau of parent fraction in plasma) ([2]; 5 mg/Kg) | biodistribution of radioactivity in dynamic PET images [3] | induction of FKBP12/FRB dimerization (luminescence) (FKBP12)
1 | COc1ccc(SCc2cn(CCN(C)[11CH3])nn2)cc1 [[^11C]AHK2.1] | 1.44 ± 0.2 | ca. 81% | 1 | 0.075 | 0.29 | 1 | 0.10 | 0.13 | accumulation in the gastrointestinal tract, the kidneys and the bladder | 
2 | CN(C)CCn1cc(CSc2ccc(O[11CH3])cc2)nn1 [[^11C]AHK2.2] |  |  |  |  |  |  |  |  | rapid accumulation of radioactivity in the kidneys and elimination via urine | 
3 | CO[C@H]1C[C@@H]2CC[C@@H](C)[C@@](O)(O2)C(=O)C(=O)N2CCCC[C@H]2C(=O)O[C@H]([C@H](C)C[C@@H]2CC[C@@H](O)[C@H](OC)C2)CC(=O)[C@H](C)/C=C(\C)[C@@H](O)[C@@H](OC)C(=O)[C@H](C)C[C@H](C)/C=C/C=C/C=C/1C [rapamycin, reference compound] |  |  |  |  |  |  |  |  |  | induced
